PMC5862592, “CDK8/19 inhibition induces premature G1/S transition and ATR-dependent cell death in prostate cancer cells” (Oncotarget, 2018)
Like-named read-outs stand apart in the source and are kept apart here.

Tests used:
Assay in all cases: biochemical
Parameters in all cases: KINOMEscan active site-directed competition binding assay (DiscoveRx), 456 kinases, per cent of control at 300 nM
Conditions in all cases: read-out: Percent of Control (%)
STK35 = STK35 (Homo sapiens, UniProt Q8TDR2)
Procedure, shortened: (§1)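 Binding was measured with an active site-directed competition binding assay that quantifies compound–kinase interactions. Test compounds were screened at 300 nmol/L across a 456-kinase panel.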

EPHB6 = EPHB6 (Homo sapiens, UniProt O15197)
Procedure, shortened: as §1

ACVR1B = ACVR1B (Homo sapiens, UniProt P36896)
Procedure, shortened: as §1

LRRK2(G2019S) = LRRK2(G2019S) (Homo sapiens, UniProt Q5S007, G2019S)
Procedure, shortened: as §1

ERN1 = ERN1 (Homo sapiens, UniProt O75460)
Procedure, shortened: as §1

PAK3 = PAK3 (Homo sapiens, UniProt O75914)
PAK3, sequence (O75914 whole entry): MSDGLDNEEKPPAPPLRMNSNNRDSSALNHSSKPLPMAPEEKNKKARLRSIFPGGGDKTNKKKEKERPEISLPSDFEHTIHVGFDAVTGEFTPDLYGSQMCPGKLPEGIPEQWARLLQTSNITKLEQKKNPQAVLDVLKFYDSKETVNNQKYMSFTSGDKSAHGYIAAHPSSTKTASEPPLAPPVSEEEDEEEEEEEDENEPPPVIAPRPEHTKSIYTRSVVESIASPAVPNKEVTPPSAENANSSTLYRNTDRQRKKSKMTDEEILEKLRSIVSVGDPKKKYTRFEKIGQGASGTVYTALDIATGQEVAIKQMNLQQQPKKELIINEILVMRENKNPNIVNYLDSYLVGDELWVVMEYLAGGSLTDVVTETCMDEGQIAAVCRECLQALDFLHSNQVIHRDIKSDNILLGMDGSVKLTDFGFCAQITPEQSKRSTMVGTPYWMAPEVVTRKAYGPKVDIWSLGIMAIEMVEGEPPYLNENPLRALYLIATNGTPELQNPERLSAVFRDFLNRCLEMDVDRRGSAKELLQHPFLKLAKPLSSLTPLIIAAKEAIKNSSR
Procedure, shortened: as §1

[1] = biological target: T1, JAK3(JH1domain-catalytic) (Homo sapiens, UniProt P52333)
T1 construct: JH1domain-catalytic
Procedure, shortened: as §1

EPHA6 = EPHA6 (Homo sapiens, UniProt Q9UF33)
Procedure, shortened: as §1

DDR1 = DDR1 (Homo sapiens, UniProt Q08345)
Procedure, shortened: as §1

HIPK3 = HIPK3 (Homo sapiens, UniProt Q9H422)
HIPK3, sequence (Q9H422 whole entry): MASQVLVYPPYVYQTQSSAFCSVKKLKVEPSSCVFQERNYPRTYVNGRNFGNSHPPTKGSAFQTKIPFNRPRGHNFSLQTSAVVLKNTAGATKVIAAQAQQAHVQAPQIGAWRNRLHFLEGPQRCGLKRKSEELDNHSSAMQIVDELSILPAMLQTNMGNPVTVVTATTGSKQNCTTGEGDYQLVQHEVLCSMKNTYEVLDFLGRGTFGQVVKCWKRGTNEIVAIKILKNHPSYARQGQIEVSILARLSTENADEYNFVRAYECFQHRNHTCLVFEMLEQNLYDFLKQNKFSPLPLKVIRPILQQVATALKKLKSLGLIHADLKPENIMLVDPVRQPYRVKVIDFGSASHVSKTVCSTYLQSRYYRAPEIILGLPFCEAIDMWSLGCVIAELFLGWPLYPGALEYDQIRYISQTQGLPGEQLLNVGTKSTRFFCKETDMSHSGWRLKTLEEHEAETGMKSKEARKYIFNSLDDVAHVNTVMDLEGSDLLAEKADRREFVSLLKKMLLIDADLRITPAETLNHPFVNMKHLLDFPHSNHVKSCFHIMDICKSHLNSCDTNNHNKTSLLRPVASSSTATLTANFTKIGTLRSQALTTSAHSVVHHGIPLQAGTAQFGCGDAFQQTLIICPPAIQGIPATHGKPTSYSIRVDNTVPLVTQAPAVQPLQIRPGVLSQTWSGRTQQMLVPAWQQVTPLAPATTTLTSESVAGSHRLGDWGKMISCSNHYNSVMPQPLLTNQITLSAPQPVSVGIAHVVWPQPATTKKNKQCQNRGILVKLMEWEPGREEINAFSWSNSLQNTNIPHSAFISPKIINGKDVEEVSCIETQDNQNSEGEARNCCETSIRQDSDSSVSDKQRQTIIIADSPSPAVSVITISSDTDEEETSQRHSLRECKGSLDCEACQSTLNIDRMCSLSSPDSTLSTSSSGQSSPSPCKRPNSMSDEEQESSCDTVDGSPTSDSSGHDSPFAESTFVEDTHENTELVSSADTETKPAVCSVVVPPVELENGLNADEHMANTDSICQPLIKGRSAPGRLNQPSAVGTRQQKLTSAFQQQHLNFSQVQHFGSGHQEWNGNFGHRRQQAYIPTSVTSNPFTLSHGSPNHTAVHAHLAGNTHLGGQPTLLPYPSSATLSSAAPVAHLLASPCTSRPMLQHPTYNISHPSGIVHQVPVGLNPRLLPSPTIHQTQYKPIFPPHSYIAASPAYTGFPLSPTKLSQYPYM
Procedure, shortened: as §1

PRKG2 = PRKG2 (Homo sapiens, UniProt Q13237)
Procedure, shortened: as §1

ERBB4 = ERBB4 (Homo sapiens, UniProt Q15303)
Procedure, shortened: as §1

STK36 = STK36 (Homo sapiens, UniProt Q9NRP7)
Procedure, shortened: as §1

TNK1 = TNK1 (Homo sapiens, UniProt Q13470)
Procedure, shortened: as §1

MERTK = MERTK (Homo sapiens, UniProt Q12866)
Procedure, shortened: as §1

PIK3CA(E545K) = PIK3CA(E545K) (Homo sapiens, UniProt P42336, E545K)
PIK3CA(E545K), sequence (P42336 whole entry E545K): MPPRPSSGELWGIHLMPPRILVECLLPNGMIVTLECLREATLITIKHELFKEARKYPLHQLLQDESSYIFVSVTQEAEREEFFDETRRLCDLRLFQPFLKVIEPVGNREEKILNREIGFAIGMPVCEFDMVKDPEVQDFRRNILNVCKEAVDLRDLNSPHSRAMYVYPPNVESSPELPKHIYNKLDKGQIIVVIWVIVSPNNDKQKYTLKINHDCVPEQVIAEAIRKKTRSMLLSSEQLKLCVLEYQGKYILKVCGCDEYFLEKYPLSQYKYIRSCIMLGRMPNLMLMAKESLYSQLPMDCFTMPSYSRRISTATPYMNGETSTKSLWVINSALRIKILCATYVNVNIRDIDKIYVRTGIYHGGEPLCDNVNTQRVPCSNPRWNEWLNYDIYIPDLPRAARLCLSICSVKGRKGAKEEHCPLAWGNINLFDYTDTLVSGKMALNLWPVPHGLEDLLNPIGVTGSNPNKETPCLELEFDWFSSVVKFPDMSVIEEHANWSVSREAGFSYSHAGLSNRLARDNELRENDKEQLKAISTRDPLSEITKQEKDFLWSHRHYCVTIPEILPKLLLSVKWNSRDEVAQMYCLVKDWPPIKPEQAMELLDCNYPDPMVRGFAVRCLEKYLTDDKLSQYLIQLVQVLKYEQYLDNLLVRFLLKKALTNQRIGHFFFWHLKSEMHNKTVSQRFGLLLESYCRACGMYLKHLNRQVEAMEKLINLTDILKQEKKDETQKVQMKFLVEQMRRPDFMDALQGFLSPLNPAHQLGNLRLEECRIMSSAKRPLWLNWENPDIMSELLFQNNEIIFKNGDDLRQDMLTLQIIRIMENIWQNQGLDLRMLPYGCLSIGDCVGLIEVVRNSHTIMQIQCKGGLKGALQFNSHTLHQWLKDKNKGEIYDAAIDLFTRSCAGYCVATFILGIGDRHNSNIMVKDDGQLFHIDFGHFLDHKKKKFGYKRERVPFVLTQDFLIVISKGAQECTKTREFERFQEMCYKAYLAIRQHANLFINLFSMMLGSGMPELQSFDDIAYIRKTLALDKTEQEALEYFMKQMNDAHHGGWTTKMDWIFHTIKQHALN
Procedure, shortened: as §1

DYRK1B = DYRK1B (Homo sapiens, UniProt Q9Y463)
DYRK1B, sequence (Q9Y463 whole entry): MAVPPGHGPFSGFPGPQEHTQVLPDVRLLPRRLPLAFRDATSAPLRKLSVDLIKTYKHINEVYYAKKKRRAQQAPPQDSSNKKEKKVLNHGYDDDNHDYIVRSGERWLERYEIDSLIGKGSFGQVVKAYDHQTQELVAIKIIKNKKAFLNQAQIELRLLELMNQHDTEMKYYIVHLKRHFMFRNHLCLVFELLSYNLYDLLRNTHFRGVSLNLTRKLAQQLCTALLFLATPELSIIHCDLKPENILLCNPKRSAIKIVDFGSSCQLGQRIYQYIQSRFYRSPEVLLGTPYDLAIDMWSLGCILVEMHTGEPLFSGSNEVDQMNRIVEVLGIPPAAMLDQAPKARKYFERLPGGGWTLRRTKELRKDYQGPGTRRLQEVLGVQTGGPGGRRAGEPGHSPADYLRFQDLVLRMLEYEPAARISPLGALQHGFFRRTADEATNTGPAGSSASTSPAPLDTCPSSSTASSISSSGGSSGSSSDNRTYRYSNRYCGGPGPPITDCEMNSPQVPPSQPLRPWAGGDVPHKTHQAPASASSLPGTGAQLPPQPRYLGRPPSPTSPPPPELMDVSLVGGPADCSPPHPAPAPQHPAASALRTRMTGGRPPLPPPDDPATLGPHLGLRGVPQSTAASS
Procedure, shortened: as §1

PIP5K1C = PIP5K1C (Homo sapiens, UniProt O60331)
Procedure, shortened: as §1

p38-gamma = biological target: T2, p38-gamma (Homo sapiens, UniProt P53778)
T2 construct: gene MAPK12
Procedure, shortened: as §1

SLK = SLK (Homo sapiens, UniProt Q9H2G2)
Procedure, shortened: as §1

ALK(L1196M) = ALK(L1196M) (Homo sapiens, UniProt Q9UM73, L1196M)
ALK(L1196M), sequence (Q9UM73 whole entry L1196M): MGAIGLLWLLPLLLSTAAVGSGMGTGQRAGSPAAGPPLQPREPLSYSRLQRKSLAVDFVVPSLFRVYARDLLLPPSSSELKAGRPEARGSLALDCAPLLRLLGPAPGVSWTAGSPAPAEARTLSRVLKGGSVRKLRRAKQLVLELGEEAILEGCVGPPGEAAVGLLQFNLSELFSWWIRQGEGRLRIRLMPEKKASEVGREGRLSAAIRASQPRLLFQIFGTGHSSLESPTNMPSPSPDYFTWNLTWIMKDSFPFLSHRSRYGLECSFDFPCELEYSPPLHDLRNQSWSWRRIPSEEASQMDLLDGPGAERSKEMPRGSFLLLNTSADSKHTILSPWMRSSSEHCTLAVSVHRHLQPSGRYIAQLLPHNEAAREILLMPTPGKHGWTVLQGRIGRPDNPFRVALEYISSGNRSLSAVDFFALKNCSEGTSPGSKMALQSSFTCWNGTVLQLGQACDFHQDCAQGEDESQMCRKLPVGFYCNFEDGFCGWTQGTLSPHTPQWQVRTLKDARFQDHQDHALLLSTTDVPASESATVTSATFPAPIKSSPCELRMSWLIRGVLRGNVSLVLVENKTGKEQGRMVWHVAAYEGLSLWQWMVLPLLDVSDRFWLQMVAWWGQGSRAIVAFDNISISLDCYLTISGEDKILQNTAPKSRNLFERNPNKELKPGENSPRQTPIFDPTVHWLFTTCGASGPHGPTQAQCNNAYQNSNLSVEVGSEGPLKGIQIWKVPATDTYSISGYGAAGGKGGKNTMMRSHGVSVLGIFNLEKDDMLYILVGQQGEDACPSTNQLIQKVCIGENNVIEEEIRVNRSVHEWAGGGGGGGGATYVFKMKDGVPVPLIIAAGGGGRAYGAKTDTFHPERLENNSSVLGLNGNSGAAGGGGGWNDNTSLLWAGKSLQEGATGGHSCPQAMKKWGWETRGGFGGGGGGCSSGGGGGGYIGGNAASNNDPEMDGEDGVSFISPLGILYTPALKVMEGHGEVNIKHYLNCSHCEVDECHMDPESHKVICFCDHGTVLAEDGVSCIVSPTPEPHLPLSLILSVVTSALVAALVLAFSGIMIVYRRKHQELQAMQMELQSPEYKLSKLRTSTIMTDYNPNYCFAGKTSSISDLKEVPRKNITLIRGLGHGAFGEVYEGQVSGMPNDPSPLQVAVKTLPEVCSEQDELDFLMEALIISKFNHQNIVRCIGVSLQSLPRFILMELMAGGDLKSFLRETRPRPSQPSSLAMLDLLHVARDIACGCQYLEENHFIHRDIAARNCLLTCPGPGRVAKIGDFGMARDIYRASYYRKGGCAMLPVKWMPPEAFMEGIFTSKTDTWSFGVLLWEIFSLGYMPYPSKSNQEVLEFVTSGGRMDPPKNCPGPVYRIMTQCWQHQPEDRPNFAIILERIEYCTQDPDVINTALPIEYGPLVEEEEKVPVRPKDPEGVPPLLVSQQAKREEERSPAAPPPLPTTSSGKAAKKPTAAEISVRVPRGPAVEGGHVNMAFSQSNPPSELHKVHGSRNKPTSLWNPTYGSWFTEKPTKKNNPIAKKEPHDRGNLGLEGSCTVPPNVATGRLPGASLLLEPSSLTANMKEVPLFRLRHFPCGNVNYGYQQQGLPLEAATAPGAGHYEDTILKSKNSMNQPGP
Procedure, shortened: as §1

CSF1R = CSF1R (Homo sapiens, UniProt P07333)
Procedure, shortened: as §1

## O=C(/C=C/c1cnccc1-c1ccc(F)cc1)Nc1ccc(CCc2nnco2)cc1 [T-418, (2E)-3-(4-(4-fluorophenyl)pyridin-3-yl)-N-(4-(2-(1,3,4-oxadiazol-2-yl)ethyl)phenyl)acrylamide]
STK35; sheet T-418
  remaining binding at 0.3 µM: 98%
EPHB6; sheet T-418
  remaining binding at 0.3 µM: 93%
ACVR1B; sheet T-418
  remaining binding at 0.3 µM: 77%
LRRK2(G2019S); sheet T-418
  remaining binding at 0.3 µM: 84%
ERN1; sheet T-418
  remaining binding at 0.3 µM: 100%
PAK3; sheet T-418
  remaining binding at 0.3 µM: 93%
[1]; sheet T-418
  remaining binding at 0.3 µM: 68%
EPHA6; sheet T-418
  remaining binding at 0.3 µM: 100%
DDR1; sheet T-418
  remaining binding at 0.3 µM: 100%
HIPK3; sheet T-418
  remaining binding at 0.3 µM: 64%
PRKG2; sheet T-418
  remaining binding at 0.3 µM: 49%
ERBB4; sheet T-418
  remaining binding at 0.3 µM: 89%
STK36; sheet T-418
  remaining binding at 0.3 µM: 100%
TNK1; sheet T-418
  remaining binding at 0.3 µM: 87%
MERTK; sheet T-418
  remaining binding at 0.3 µM: 100%
PIK3CA(E545K); sheet T-418
  remaining binding at 0.3 µM: 82%
DYRK1B; sheet T-418
  remaining binding at 0.3 µM: 67%
PIP5K1C; sheet T-418
  remaining binding at 0.3 µM: 100%
p38-gamma; sheet T-418
  remaining binding at 0.3 µM: 86%
SLK; sheet T-418
  remaining binding at 0.3 µM: 100%
ALK(L1196M); sheet T-418
  remaining binding at 0.3 µM: 100%
CSF1R; sheet T-418
  remaining binding at 0.3 µM: 81%

## Cc1ncccc1Oc1sc(C(N)=O)c2c1-c1c(cnn1C)CC2 [T-474, 1-methyl-8-((2-methylpyridin-3-yl)oxy)-4,5-dihydro-1H-thieno[3,4-g]indazole-6-carboxamide]
STK35
  remaining binding at 0.3 µM: 100%
EPHB6
  remaining binding at 0.3 µM: 86%
ACVR1B
  remaining binding at 0.3 µM: 77%
LRRK2(G2019S)
  remaining binding at 0.3 µM: 88%
ERN1
  remaining binding at 0.3 µM: 89%
PAK3
  remaining binding at 0.3 µM: 100%
[1]
  remaining binding at 0.3 µM: 72%
EPHA6
  remaining binding at 0.3 µM: 100%
DDR1
  remaining binding at 0.3 µM: 100%
HIPK3
  remaining binding at 0.3 µM: 79%
PRKG2
  remaining binding at 0.3 µM: 48%
ERBB4
  remaining binding at 0.3 µM: 100%
STK36
  remaining binding at 0.3 µM: 100%
TNK1
  remaining binding at 0.3 µM: 98%
MERTK
  remaining binding at 0.3 µM: 100%
PIK3CA(E545K)
  remaining binding at 0.3 µM: 100%
DYRK1B
  remaining binding at 0.3 µM: 24%
PIP5K1C
  remaining binding at 0.3 µM: 100%
p38-gamma
  remaining binding at 0.3 µM: 100%
SLK
  remaining binding at 0.3 µM: 100%
ALK(L1196M)
  remaining binding at 0.3 µM: 100%
CSF1R
  remaining binding at 0.3 µM: 100%
